The values that follow come from PMC6522510 (Nature Communications, 2019).

Molecules are shown by their SMILES. Structures can show the parent of a compound that is named as a salt. Where two headings read alike, the source gives them in different places.

Common to all, as to design: species or system AML cell lines (8); Primary HTS, single concentration about 10 uM, Cell Titer Glo viability; log10 luminescence, per cent inhibition relative to cycloheximide control
Holding throughout (conditions): 72 h, relative to cycloheximide control, log10 luminescence, inhibitor
(In ATP-based viability assays light output follows the ATP content of the culture.)

The subject of experiment [1] is ML-2.
Experiment [2] concerns U937.
The test system of experiment [3] is CMK.
For experiment [4], the system named is CHRF288-11.
Experiment [5] has as its system MV4-11.
Experiment [6] deals with M07e.
For experiment [7], the system named is MOLM-13.
In experiment [8] the test system is CMS.

`Cc1ccc(C)c(OCCCC(C)(C)C(=O)O)c1` [SJ000285775-5, GEMFIBROZIL]: in experiment [1] (ML-2 %inh, 10 µM), the ML-2 %inh is reported as 5.256%. In addition, in experiment [2] (U937 %inh, 10 µM), the U937 %inh was determined as 12.09%. Also, the CMK %inh in experiment [3] (CMK %inh, 10 µM) is 52.47%. For the same molecule, the CHRF288-11 %inh in experiment [4] (CHRF288-11 %inh, 10 µM) was determined as 15.66%. Also, in experiment [5] (MV4-11 %inh, 10 µM), the MV4-11 %inh is on record as 21.39%. In addition, in experiment [6] (M07e %inh, 10 µM), the M07e %inh is reported as 4.331%. In experiment [7] (MOLM-13 %inh, 10 µM), the MOLM-13 %inh is 7.787%. For the same molecule, the CMS %inh in experiment [8] (CMS %inh, 10 µM) amounted to 12.02%.

As to `Cc1ccc(-c2cc3c(NC(=O)C4CC4)ncnc3o2)cc1` [SJ000573325-1, T337/155/21], the ML-2 %inh in experiment [1] is reported as 1.949%. Further, the U937 %inh in experiment [2] is -2.342%. Further, the CMK %inh in experiment [3] is reported as -5.745%. Further, the CHRF288-11 %inh in experiment [4] worked out at 1.899%. Moreover, the MV4-11 %inh in experiment [5] is reported as -4.319%. Moreover, the M07e %inh in experiment [6] turned out to be 5.01%. In addition, in experiment [7], the MOLM-13 %inh is recorded as -1.693%. In experiment [8], the CMS %inh was 1.223%.

Turning to `CCNC(=O)O[C@H]1CN[C@H](C#Cc2cc3ncnc(Nc4ccc(OCc5cccc(F)c5)c(Cl)c4)c3s2)C1` [SJ000573214-1, U20348/125/4], the ML-2 %inh in experiment [1] was determined as 3.073%. Besides, the U937 %inh in experiment [2] is given as -0.8245%. Moreover, the CMK %inh in experiment [3] is on record as -1.307%. Further, the CHRF288-11 %inh in experiment [4] is recorded as 5.639%. Further, the MV4-11 %inh in experiment [5] is 0.06144%. Moreover, the M07e %inh in experiment [6] came out at 3.561%. Further, the MOLM-13 %inh in experiment [7] amounted to 0.5641%. Also, in experiment [8], the CMS %inh is reported as 3.079%.

`Cc1ccc(C(=O)Cn2c3c(sc2=N)CCCC3)cc1` [SJ000546523-1, PIFITHRIN-ALPHA HYDROBROMIDE | PIFITHRIN-ALPHA HYDROBROMIDE | | PIFITHRIN-ALPHA (PFTALPHA)]: the ML-2 %inh in experiment [1] is -0.3437%. The U937 %inh in experiment [2] is -0.03033%. For the same molecule, the CMK %inh in experiment [3] was found to be 3.731%. Also, the CHRF288-11 %inh in experiment [4] amounted to 6.15%. In experiment [5], the MV4-11 %inh is recorded as 4.352%. The M07e %inh in experiment [6] is on record as 2.173%. Moreover, in experiment [7], the MOLM-13 %inh is listed as 4.765%. In experiment [8], the CMS %inh is listed as 0.7689%.

In the case of `NC(N)=NCCS[C@@H](CC(=O)O)C(=O)O` [SJ000772425-1, GEMSA], in experiment [1], the ML-2 %inh was determined as 0.5506%. Also, the U937 %inh in experiment [2] stood at 0.2934%. The CMK %inh in experiment [3] is -1.464%. Also, the CHRF288-11 %inh in experiment [4] is reported as -3.397%. In addition, the MV4-11 %inh in experiment [5] is given as 3.627%. Further, the M07e %inh in experiment [6] was 1.501%. Besides, the MOLM-13 %inh in experiment [7] worked out at 0.138%. In addition, the CMS %inh in experiment [8] was -0.9686%.

On to `Cc1ccc(S(=O)(=O)NC(=O)NN2CCCCCC2)cc1` [SJ000285887-7, TOLAZAMIDE], for which the ML-2 %inh in experiment [1] was -1.198%. Moreover, the U937 %inh in experiment [2] is given as -0.04508%. Further, the CMK %inh in experiment [3] is reported as -1.031%. The CHRF288-11 %inh in experiment [4] is 90.56%. Moreover, in experiment [5], the MV4-11 %inh is listed as 0.7665%. In experiment [6], the M07e %inh worked out at 4.47%. Moreover, the MOLM-13 %inh in experiment [7] worked out at 0.3359%. Besides, in experiment [8], the CMS %inh is reported as 0.4752%.

With `COc1cc2ncn(-c3cc(O[C@H](C)c4ccccc4Cl)c(C(N)=O)s3)c2cc1OC` [SJ000573003-2, U20723/53/1 | U20723/56/1], in experiment [1], the ML-2 %inh worked out at 11.11%. For the same molecule, the U937 %inh in experiment [2] is recorded as 82.96%. Besides, the CMK %inh in experiment [3] was 110.4%. For the same molecule, in experiment [4], the CHRF288-11 %inh is recorded as 41.02%. Besides, the MV4-11 %inh in experiment [5] is listed as 78.95%. In addition, the M07e %inh in experiment [6] was 88.84%. In experiment [7], the MOLM-13 %inh came to 108.1%. The CMS %inh in experiment [8] was found to be 80.13%.

As to `C[C@@H](O)[C@@H]1NC(=O)[C@H](CCCCN)NC(=O)[C@@H](Cc2c[nH]c3ccccc23)NC(=O)[C@H](Cc2ccccc2)NC(=O)[C@@H](NC(=O)[C@H](N)Cc2ccccc2)CSSC[C@@H](C(=O)N[C@H](CO)[C@@H](C)O)NC1=O` [SJ000520506-1, OCTREOTIDE ACETATE], the ML-2 %inh in experiment [1] was 0.4552%. Also, the U937 %inh in experiment [2] was -3.486%. In addition, the CMK %inh in experiment [3] is given as -5.736%. In addition, the CHRF288-11 %inh in experiment [4] is given as 5.062%. Besides, the MV4-11 %inh in experiment [5] is listed as 0.9577%. The M07e %inh in experiment [6] was -0.4484%. For the same molecule, in experiment [7], the MOLM-13 %inh is given as 0.6504%. Also, in experiment [8], the CMS %inh was 0.6202%.

Regarding `CC1(C)O[C@@H]2C[C@H]3[C@@H]4CCC5=CC(=O)CC[C@]5(C)[C@@]4(F)[C@@H](O)C[C@]3(C)[C@]2(C(=O)CCl)O1` [SJ000286948-3, HALCINONIDE], the ML-2 %inh in experiment [1] was 2.814%. Moreover, the U937 %inh in experiment [2] is given as 10.5%. Besides, the CMK %inh in experiment [3] turned out to be 7.614%. The CHRF288-11 %inh in experiment [4] was 0.4115%. Besides, the MV4-11 %inh in experiment [5] is on record as 4.793%. Moreover, in experiment [6], the M07e %inh was -3.04%. In experiment [7], the MOLM-13 %inh was 15.68%. Moreover, the CMS %inh in experiment [8] turned out to be 6.83%.

Consider `COC(=O)Nc1nc2cc(Oc3cccc(NC(=O)Nc4cc(C(F)(F)F)ccc4F)c3)ccc2[nH]1` [SJ000573299-1, T261/2/3], for which the ML-2 %inh in experiment [1] was -3.985%. In experiment [2], the U937 %inh is -3.556%. In addition, in experiment [3], the CMK %inh was determined as 4.931%. In addition, in experiment [4], the CHRF288-11 %inh is -6.517%. Besides, the MV4-11 %inh in experiment [5] amounted to 1.052%. In experiment [6], the M07e %inh is listed as -5.089%. Besides, the MOLM-13 %inh in experiment [7] amounted to 2.873%. Besides, the CMS %inh in experiment [8] is -1.053%.

For `Nc1c(C(=O)c2cccc(C#CCO)c2)cnn1-c1ccc(F)cc1` [SJ000581005-1], in experiment [1], the ML-2 %inh was -1.489%. Besides, the U937 %inh in experiment [2] is recorded as -1.339%. Moreover, in experiment [3], the CMK %inh was -3.113%. Moreover, in experiment [4], the CHRF288-11 %inh is -2.428%. Also, in experiment [5], the MV4-11 %inh is -2.436%. For the same molecule, in experiment [6], the M07e %inh is on record as 1.15%. In experiment [7], the MOLM-13 %inh is reported as -0.3055%. Moreover, the CMS %inh in experiment [8] stood at 3.189%.

Regarding `Cn1cc(C2=C(c3cn(C)c4ccc(OCc5ccccc5)cc34)C(=O)NC2=O)c2ccccc21` [SJ000581064-1], in experiment [1], the ML-2 %inh is given as -0.03114%. In addition, the U937 %inh in experiment [2] is given as -0.03201%. Also, the CMK %inh in experiment [3] is given as -3.355%. Besides, the CHRF288-11 %inh in experiment [4] is recorded as 7.008%. For the same molecule, in experiment [5], the MV4-11 %inh stood at 0.7902%. In addition, the M07e %inh in experiment [6] came to 0.1859%. Further, in experiment [7], the MOLM-13 %inh was -0.8092%. Besides, in experiment [8], the CMS %inh was found to be 2.588%.

As for `COc1ccc2c(C3=C(c4cn(C)c5ccccc45)C(=O)NC3=O)cn(C)c2c1` [SJ000581082-1], the ML-2 %inh in experiment [1] is given as 51.13%. Besides, the U937 %inh in experiment [2] was 79.84%. In experiment [3], the CMK %inh amounted to 107.7%. In addition, the CHRF288-11 %inh in experiment [4] turned out to be 125.3%. For the same molecule, the MV4-11 %inh in experiment [5] worked out at 77.51%. Also, in experiment [6], the M07e %inh is on record as 103.9%. In experiment [7], the MOLM-13 %inh turned out to be 81.86%. In experiment [8], the CMS %inh came to 102.2%.

Turning to `COc1ccc(OC)c(C2=C(c3cn(C)c4ccccc34)C(=O)NC2=O)c1` [SJ000581081-1], the ML-2 %inh in experiment [1] is given as -0.4206%. The U937 %inh in experiment [2] is listed as -0.9957%. Besides, the CMK %inh in experiment [3] is 3.003%. Further, the CHRF288-11 %inh in experiment [4] is given as 7.567%. Also, the MV4-11 %inh in experiment [5] came out at 1.033%. For the same molecule, the M07e %inh in experiment [6] is reported as 2.921%. Further, in experiment [7], the MOLM-13 %inh is -2.282%. In experiment [8], the CMS %inh stood at 0.8246%.

Consider `Nc1c(C(=O)c2cccc(-c3ccncc3)c2)cnn1-c1ccc(F)cc1F` [SJ000581077-1], for which the ML-2 %inh in experiment [1] is reported as 15.89%. In experiment [2], the U937 %inh was 32.29%. For the same molecule, the CMK %inh in experiment [3] is reported as 75.1%. The CHRF288-11 %inh in experiment [4] came to 21.24%. For the same molecule, the MV4-11 %inh in experiment [5] stood at 3.251%. The M07e %inh in experiment [6] is listed as 29.92%. For the same molecule, the MOLM-13 %inh in experiment [7] was found to be 13.91%. In addition, the CMS %inh in experiment [8] was determined as 10.55%.

As for `O=C1NC(=O)C(c2ccc(Cl)cc2)=C1Nc1ccc(Cl)c(C(=O)O)c1` [SJ000573148-1, DH98298-170B2], in experiment [1], the ML-2 %inh was 0.6305%. For the same molecule, in experiment [2], the U937 %inh is -3.231%. Besides, the CMK %inh in experiment [3] is -5.939%. The CHRF288-11 %inh in experiment [4] is -1.873%. For the same molecule, the MV4-11 %inh in experiment [5] is reported as -6.646%. Moreover, in experiment [6], the M07e %inh was -2.934%. In addition, the MOLM-13 %inh in experiment [7] is -3.138%. Further, the CMS %inh in experiment [8] was -1.744%.
